Where “and” joins values, the source holds several entries; their conditions need not be identical. Equal entries are not always repeated. Where two headings read alike, the source gives them in different places.
Columns and labels:
M5 muscarinic receptor = target: T1, M5 muscarinic receptor (Homo sapiens, UniProt P08912); assay: R-SAT functional receptor assay, M5; format: cell-based; conditions: for % Efficacy M5: relative to full agonist carbachol; for Emax: read-out: % Efficacy M5
T1 construct: expressed in transfected cells
T1 sequence (P08912 1-532): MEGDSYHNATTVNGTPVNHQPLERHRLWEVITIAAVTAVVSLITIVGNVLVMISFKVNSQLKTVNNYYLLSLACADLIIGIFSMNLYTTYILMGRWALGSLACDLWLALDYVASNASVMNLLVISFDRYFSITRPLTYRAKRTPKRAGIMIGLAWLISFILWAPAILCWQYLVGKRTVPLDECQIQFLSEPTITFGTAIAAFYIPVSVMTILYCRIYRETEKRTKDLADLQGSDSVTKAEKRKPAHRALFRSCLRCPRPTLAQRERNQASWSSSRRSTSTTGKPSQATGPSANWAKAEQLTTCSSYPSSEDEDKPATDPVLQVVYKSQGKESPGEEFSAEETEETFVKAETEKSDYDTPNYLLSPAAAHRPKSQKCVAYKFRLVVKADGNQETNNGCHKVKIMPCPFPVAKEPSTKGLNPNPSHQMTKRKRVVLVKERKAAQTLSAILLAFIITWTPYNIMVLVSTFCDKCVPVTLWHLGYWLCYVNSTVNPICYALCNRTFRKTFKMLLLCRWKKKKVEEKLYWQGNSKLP

M4 muscarinic receptor [1] = target: T2, M4 muscarinic receptor (Homo sapiens, UniProt P08173); assay: cell-based; conditions: read-out: % Efficacy M4
T2 sequence (P08173 1-479): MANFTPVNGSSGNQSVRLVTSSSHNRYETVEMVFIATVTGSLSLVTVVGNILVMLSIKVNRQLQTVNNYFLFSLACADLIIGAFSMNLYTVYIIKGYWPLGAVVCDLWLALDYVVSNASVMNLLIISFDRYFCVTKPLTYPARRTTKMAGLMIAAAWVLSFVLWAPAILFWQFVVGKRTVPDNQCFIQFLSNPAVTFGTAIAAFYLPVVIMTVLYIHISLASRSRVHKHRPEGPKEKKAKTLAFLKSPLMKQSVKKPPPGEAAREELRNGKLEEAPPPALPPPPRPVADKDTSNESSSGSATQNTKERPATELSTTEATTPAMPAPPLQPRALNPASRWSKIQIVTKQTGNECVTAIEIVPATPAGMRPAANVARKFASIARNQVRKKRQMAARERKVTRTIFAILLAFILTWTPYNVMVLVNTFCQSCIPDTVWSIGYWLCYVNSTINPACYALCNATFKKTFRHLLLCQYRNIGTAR

M2 muscarinic receptor = target: T3, M2 muscarinic receptor (Homo sapiens, UniProt P08172); assay: R-SAT functional receptor assay, M2; conditions: for Emax: read-out: % Efficacy M2
T3 sequence (P08172 1-466): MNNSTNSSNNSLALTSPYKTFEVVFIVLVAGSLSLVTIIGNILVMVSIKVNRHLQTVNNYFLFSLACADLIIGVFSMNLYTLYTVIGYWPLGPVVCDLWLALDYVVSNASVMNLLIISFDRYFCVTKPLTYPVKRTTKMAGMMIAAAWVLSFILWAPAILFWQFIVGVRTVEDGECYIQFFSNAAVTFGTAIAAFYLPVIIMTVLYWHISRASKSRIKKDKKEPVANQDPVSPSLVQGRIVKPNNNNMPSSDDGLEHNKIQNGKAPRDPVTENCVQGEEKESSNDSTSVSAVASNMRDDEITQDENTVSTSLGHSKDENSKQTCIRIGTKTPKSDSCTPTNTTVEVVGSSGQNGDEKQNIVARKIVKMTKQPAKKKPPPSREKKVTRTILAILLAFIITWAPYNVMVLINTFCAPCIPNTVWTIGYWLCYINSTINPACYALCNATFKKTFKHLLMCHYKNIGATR

[2] = tested on: hippocampal MAP kinase (MAPK) activity in CA1 pyramidal neurons; assay: hippocampal MAP kinase activation assay after parenteral administration; format: in vivo, C57BL6 mice
[3] = target: T4, human M1 muscarinic receptors (Homo sapiens, UniProt P11229); conditions: R-SAT; relative to full agonist carbachol; ± standard deviation
T4 sequence (P11229 whole entry): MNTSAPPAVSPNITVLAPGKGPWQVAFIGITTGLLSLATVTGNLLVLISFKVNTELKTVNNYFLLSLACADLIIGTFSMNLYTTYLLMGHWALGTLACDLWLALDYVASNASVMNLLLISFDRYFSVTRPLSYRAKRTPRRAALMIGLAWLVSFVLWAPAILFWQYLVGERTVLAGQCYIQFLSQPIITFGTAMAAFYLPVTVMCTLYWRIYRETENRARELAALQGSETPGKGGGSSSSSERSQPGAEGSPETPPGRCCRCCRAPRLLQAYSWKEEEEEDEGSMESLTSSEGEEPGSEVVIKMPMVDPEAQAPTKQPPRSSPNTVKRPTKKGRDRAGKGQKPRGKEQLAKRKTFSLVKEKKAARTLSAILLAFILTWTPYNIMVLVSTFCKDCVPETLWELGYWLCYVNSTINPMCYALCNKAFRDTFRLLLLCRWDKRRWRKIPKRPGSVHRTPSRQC

[4] = target: T4, human M1 muscarinic receptors; conditions: PI hydrolysis; ± standard deviation
[5] = target: T4, human M1 muscarinic receptors; assay: cell-based; conditions: ± standard deviation
[6] = target: T4, human M1 muscarinic receptors; assay: cell-based
M3 muscarinic receptor = M3 muscarinic receptor (Homo sapiens, UniProt P20309); assay: R-SAT functional receptor assay, M3; conditions: for Emax: read-out: % Efficacy M3
M3 muscarinic receptor, sequence (P20309 whole entry): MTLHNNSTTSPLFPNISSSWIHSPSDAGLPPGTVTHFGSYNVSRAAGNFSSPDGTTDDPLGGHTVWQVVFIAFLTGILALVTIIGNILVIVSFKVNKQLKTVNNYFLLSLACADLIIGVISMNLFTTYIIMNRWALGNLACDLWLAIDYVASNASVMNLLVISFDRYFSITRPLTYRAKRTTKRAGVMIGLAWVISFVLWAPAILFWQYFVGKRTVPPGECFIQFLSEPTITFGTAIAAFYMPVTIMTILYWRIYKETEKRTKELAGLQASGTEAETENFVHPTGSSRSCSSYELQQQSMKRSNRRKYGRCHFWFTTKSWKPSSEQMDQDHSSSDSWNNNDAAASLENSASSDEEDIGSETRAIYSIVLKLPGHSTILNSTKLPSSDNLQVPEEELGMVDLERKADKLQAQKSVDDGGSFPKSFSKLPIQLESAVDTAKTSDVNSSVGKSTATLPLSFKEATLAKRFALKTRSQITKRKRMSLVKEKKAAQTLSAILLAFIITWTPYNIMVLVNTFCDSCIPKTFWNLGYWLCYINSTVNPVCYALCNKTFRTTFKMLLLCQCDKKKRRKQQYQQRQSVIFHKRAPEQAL

M4 muscarinic receptor [7] = target: T2, M4 muscarinic receptor; conditions: R-SAT; relative to full agonist carbachol; ± standard deviation

Emax (M4 muscarinic receptor [1]) [%]	Emax (M2 muscarinic receptor) [%]	Emax (M5 muscarinic receptor) [%]	Emax (M3 muscarinic receptor) [%]	SMILES	% Efficacy M5 (M5 muscarinic receptor; R-SAT, ± standard deviation)	further results
49 ± 6	57 ± 4			CN1CCN(C2=Nc3cc(Cl)ccc3Nc3ccccc32)CC1 [Clozapine, clozapine]	no response	
88 ± 3	78 ± 7	66 ± 4	19 ± 3	Clc1ccc2c(c1)N=C(N1CCNCC1)c1ccccc1N2 [N-desmethylclozapine, 8-chloro-11-(1-piperazinyl)-5H-dibenzo[b,e][1,4]diazepine]		EC50 (M5 muscarinic receptor; R-SAT, ± standard deviation, read-out: pEC50 M5 (converted)): 45.7 nM; blood brain barrier penetration ([2]; concluded from central MAPK activation after s.c. dosing): penetrates the blood brain barrier; MAPK activation in hippocampus ([2]; s.c., dose of 30 mg/kg): Robust activation; phospho-MAPK immunoreactivity in CA1 pyramidal neurons ([2]; s.c., immunohistochemistry, compared to vehicle or clozapine treatment): increased phospho-MAPK immunoreactivity; % Efficacy M1 [3]: 61 ± 5%; pEC50 M1 [4]: 7.01 ± 0.06; EC50 ([5]; pEC50 M1, R-SAT): 63.1 nM and 60.3 nM; Emax ([5]; read-out: % Efficacy M1, R-SAT, relative to full agonist carbachol): 65%; EC50 [6]: 100 nM; Emax ([6]; read-out: % Efficacy M1, PI hydrolysis, relative to full agonist carbachol, ± standard deviation): > 65%; EC50 (M2 muscarinic receptor): 182 nM; EC50 (M3 muscarinic receptor): 129 nM
116 ± 9	106 ± 9	86 ± 12	66 ± 6	CCCCCCOc1nsnc1C1=CCCN(C)C1 [Xanomeline]		
				Cc1cc2c(s1)Nc1ccccc1N=C2N1CCN(C)CC1 [Olanzapine, olanzapine]	no response	% Efficacy M4 (M4 muscarinic receptor [7]): no response; % Efficacy M2 (M2 muscarinic receptor; R-SAT, relative to full agonist carbachol, ± standard deviation): no response
96 ± 3		105 ± 3		C[N+](C)(C)CCOC(N)=O [Carbachol, carbachol]		

— patent US20040224942A1 (priority 2003, published 2004)
